Results taken from US5126258A (priority 1988, dated 1992).
Entries after “also recorded” stand apart in the source; their conditions may differ.

Experiments:
hog liver esterase = assay type: biochemical; conditions: pig, 5 µM, pH 8
Protocol: (§1) The lack of spectroscopic distinction between such esters and their hydrolysis products recommended a chromatographic analysis of the process. Referring to FIG. 3, a mixture of Compound 7 (5 uM) and the monoclonal antibody from hybridoma P3 6D4 (0.1 uM) in phosphate buffer (50 mM, pH 8.0) was analyzed over time by high performance liquid chromatography (HPLC). The accelerated hydrolysis of the ester was apparent from the decrease of its peak and the concurrent increase in two new peaks that correspond with the expected products. Under these conditions, the ester is completely consumed in 60-80 minutes during which time the background rate accounts for about 12 to 16 percent hydrolysis. The chromatographic profile is the same as that produced by treatment with hog liver esterase.
(§2) *Hydrolysis of carboxylic esters by monoclonal antibody (from hybridoma P
(§3) 6D4) and by hog liver esterase (Sigma Chemical Co., St. Louis, MO, EC
(§4) 3.1.1.1) determined by HPLC on an analytical RPC18 column (Vydac 218TP54)
(§5) with isocratic elution [acetonitrile: water plus 0.1 percent
(§6) trifluoroacetic acid; (35:65)] at a flow rate of 1.0 ml/min and the
(§7) detector set at 245 nm. The initial substrate concentration was 5
(§8) micromolar and that the internal standard (acetophenone) was 10 microm
(§9) olar in 50 mM phosphate buffer at pH 8.0. The retention times (minutes)
(§10) were as follows: acetophenone, 5.0; Compound 7, 8.3; Compound 8, 6.7;
(§11) Compound 9, 4.1; Compound 10, 11.1 (40 percent acetonitrile elution);
(§12) Compound 11, 8.2. The antibody concentration was 15 micrograms/ml (0.1
(§13) micromolar) and that of esterase was 5.5 micrograms/ml. The reaction
(§14) mixtures were kept at 25 degrees C. and aliquots were analyzed at
(§15) intervals of 2 to 20 minutes. Three or more determinations were used to
(§16) plot a curve from which the halflife of the reaction is estimated (see

[1] = system: monoclonal antibody P3 6D4; assay: Ester hydrolysis by monoclonal antibody P3 6D4, HPLC; assay type: biochemical, mouse; conditions: pH 8.0
Protocol: FIG. 3 illustrates the rate of hydrolysis of a carboxylic ester (Compound 7) determined by HPLC under the conditions described in Table 1 (50 mM phosphate buffer at pH 8.0 and 23 degrees C). ( ) Uncatalyzed (background)rate of hydrolysis. (.quadrature.) Effect of 0.5 micromolar non-specific monoclonal IgG. ( ) 0.1 Micromolar anti-Compound 4 monoclonal antibody from hybridoma P3 6D4. The superimposed curve represents a theoretical exponential decay which fits the data points.
In particular, an exemplary monoclonal receptor was produced by the standard hybridoma technology of Kohler et al., Nature, 256, 495 (1975). Specifically, female 129G1X^+ mice were immunized by intraperitoneal injection with an inoculum of 100 micrograms of conjugate (e.g., Compound 4i bound to KLH) in 300 microliters of a 1:1 mixture of phosphate buffered saline (PBS) pH 7.4 and complete Freund's adjuvant. Two weeks later, the mice were again injected in a like manner with 50 micrograms of the foregoing conjugate in 300 microliters of a 1:1 mixture of PBS (pH 7.4) and 10 mg/ml alum. After an additional eight weeks, the mice were immunized intravenously with 50 micrograms of the conjugate in 200 microliters of PBS (pH 7.4). The spleens were removed from the mice 4 days later, and the spleen cells were fused to myeloma cells.
as §1, §2, §3, §4, §5, §6, §7, §8, §9, §10, §11, §12, §13, §14, §15, §16

[2] = system: monoclonal receptor P3 6D4; assay: Stoichiometric transacylation reaction of monoclonal receptor P3 6D4 with coumarin ester Compound 5 (fluorescence) and its inhibition/inactivation; assay type: biochemical, mouse
Protocol: A Perkin-Elmer LS-5 fluorescence spectrometer was operated at a fixed wavelength, using 355 nanometers (nm) for excitation and measuring the emission at 455 nm. A stock solution of the coumarin ester 5 was prepared in dioxane and was diluted to the desired concentrations in Tris-HCl (50 mM, pH 7) or sodium phosphate (50 mM, pH 4-9).
Reactions were run at 23 degrees C and were initiated by the addition of an aliquot of antibody solution (1 mg/ml) to substrate solutions to provide a final protein concentration of 100 nM. Final fluorescence values were determined by hydrolysis of the substrate with pig liver esterase. The observed reaction rate was corrected for spontaneous hydrolysis. Reaction kinetics were studied by measuring initial rates under pseudo-first order conditions. Active protein concentration was extrapolated from fluorescence values at the end of the reaction. The kinetic parameters were obtained by fitting the data to a hyperbolic curve and from double reciprocal plots. Inhibition constants were determined from the Lineweaver-Burk plot data with at least five inhibitor concentrations. All the data were studied by a least squares analysis.
Antibody preparations were inactivated without introducing fluorescent products by the addition of the activated ester (Compound 8) in dioxane to a solution of the IgG (5 mg/ml) in Tris-HCl (50 mM, pH 6.5) at a ratio of 5 moles of the ester (Compound 8) per mole IgG.
Protein modification was performed in an analogous manner, by the addition of a dioxane solution of the reagent at a known concentration to the antibody. The solution was incubated for 30 minutes before filtration through Sephadex G-25. The activity remaining was compared to control samples. Aliquots of IgG (5 mg/ml) inactivated with the ester (Compound 8) were diluted with four volumes of phosphate buffer (50 mM, pH 4-9, at intervals of 1 pH unit). Any pH change was recorded, and the sample was stored at 4 degrees C for 24 hours.
(§17) Initially, the ester was used at a concentration that was about four-fold greater than that of the protein, and the mixture was incubated at pH 7.2 for 10 minutes. Any change in fluorescence above background was noted.
The termination of the reaction is noted by the return of the rate of fluorescence increase to the background level.

Monoclonal Receptor 22F5 = assay: Kinetics of hydrolysis by receptor 22F5; assay type: biochemical, mouse; conditions: figure = Ki × 10^7
Description: (§18) Reaction kinetics were studied using three reactant ligands as substrates for monoclonal receptors 37G2 and 22F5. Data from initial rates were consistent with Michaelis-Menten reaction mechanism for a usual enzyme-substrate system. Initial rates were followed using at 271 nm using a U.V.-visible spectorphotometer for Compound 17, and a fluorescence spectrometer for Compounds 5 and 20, using an excitation wavelength of 355 nm and an emission wavelength of 455 nm for both compounds.
(§19) Lineweaver-Burke plots for the catalyzed hydrolysis of Compounds 17, 5 and 20 obtained in the presence and absence of Compound 12i as inhibitor were prepared as discussed for FIG. 4. In particular, Compound 17 was present at concentrations of 1-16 uM with inhibitor concentrations of 100 and 300 nanomolar (nM). Compound 5 was present at concentrations of 1-10 uM with inhibitor concentrations of 100 and 200 nM. Compound 20 was present at concentrations of 2-20 uM with inhibitor concentrations of 25 and 100 nM.
*Fluorescence assays using Compounds 20 and 5 were carried out in a
PerkinElmer fluorescence spectrophotometer (moded LS5; Oakbrook, IL) usin
200 nanomolar receptor (based on a molecular weight of 150,000 daltons) i
(§20) 50 mM phosphate buffer at a pH value of 8.0. The reactant ligand was
(§21) dissolved in dioxane and admixed in the amounts discussed above. Two
(§22) milliliters of reaction solution were utilized as was a dioxane
concentration of 2 percent by volume. […]

Monoclonal Receptor 37G2 = assay: Kinetics of hydrolysis by receptor 37G2; assay type: biochemical, mouse; conditions: inhibitor Compound 12i (100 and 300 nM), substrate Compound 17; figure = Ki × 10^7
Description: as §18
as §19, with “100 nM. […]” for “100 nM.”
as §20, §21, §22
concentration of 2 percent by volume. Assays with Compound 17 as reac tan
ligand utilized 500 nanomolar receptor (based on a molecular weight of
150,000 daltons) in the above buffer, using the reactant ligand dissolved
in dioxane and a total dioxane concentration of 2 percent by volume.

[3] = Spontaneous (uncatalyzed, background) hydrolysis; assay type: physicochemical; conditions: spectrophotometric at 245 nm, initial rates at five ester concentrations; figure = k × 10^5
Protocol: as §17, with “The practical range of pH for the assay is limited by the rapid spontaneous rate of hydrolysis of an ester Compound 5 above pH 8.0. Initially,” for “Initially,”
as §1
^c The rate constants were determined spectrophotometrically (at 245
nm) by measuring initial rates at five concentrations of ester.
^1 Preliminary initial hydrolyses shown as the percentage of admixed
reactant ligand consumed for catalyzed and spontaneous hydrolyses. "--" =
No hydrolysis observed. "NT" = Not tried. All reactions were carried out
at pH 8.0 in a 50 mM phosphate buffer unless otherwise noted. Hydrolytic
percentages were determined by HPLC using a Hitachi model 655A12 liquid
chromatograph with a C18 Vydac 201TP54 column, except as noted below.
Mixtures of acetonitrile a nd water containing 0.1 percent trichloroaceti
acid [28:72-50:50 (v/v)] were used as elutant. Hydrolyses of Compounds 5
and 20 were assayed using fluorescence data.
^5 Spontaneous hydrolytic percentages for the time period indicated.
as §18

P2 50D8 = assay: Catalytic hydrolysis by receptor P2 50D8; assay type: biochemical, mouse
Protocol: (§23) Two further catalytic monoclonal receptors were similarly prepared by another fusion using Compound 2i linked to an antigenic carrier as immunogen. Those two catalytic receptor molecules and their hybridomas were designated "P2 50D8" and "P2 57G4".
(§24) In one study, twenty-eight monoclonal anti-hapten antibodies to phosphonate 2i from two separate fusion experiments were assayed. […] Antibodies to Compound 4i as hapten were assayed in the same manner. Twelve gamma-globulins were screened as described above. Compound 5 is homologous only in the acyl portion of this larger hapten; however, all but three of these cross-reacted with smaller phosphonate 2 in an ELISA assay as described herein. For two of these there was observed a fluorescence change, occurring in the first 5 minutes of incubation, which corresponds to about 50 percent of that for complete hydrolysis. The background rate of hydrolysis was reestablished after this initial reaction leveled off.

P2 57G4 = assay: Catalytic hydrolysis by receptor P2 57G4; assay type: biochemical, mouse
Protocol: as §23, §24

t1/2 Esterase (hog liver esterase) [min]	catalytic hydrolysis by P2 50D8 (P2 50D8)	catalytic hydrolysis by P2 57G4 (P2 57G4)	SMILES	accelerated hydrolysis by P3 6D4 (substrate acceptance) [1]	kuncat [3] [s⁻¹]	other results
2			O=C(Cc1ccc(NC(=O)C(F)(F)F)cc1)Oc1ccccc1 [Compound 10]	no effect on the hydrolytic rate; also recorded: not catalyzed		stoichiometric antibody reaction (release of alcohol) [2]: Neither is the stoichiometric reaction apparent
			Cc1ccc2cccc(NP(=O)(O)Cc3ccc(NC(=O)C(F)(F)F)cc3)c2n1 [Compound 12i]			Ki (Monoclonal Receptor 22F5; inhibitor Compound 12i (25 and 100 nM), substrate Compound 20): 70 nM; Ki (Monoclonal Receptor 22F5; inhibitor Compound 12i (100 and 200 nM), substrate Compound 5): 110 nM; Ki (Monoclonal Receptor 37G2): 140 nM; stability (Chemical stability; pH 3.5-7.3, room temperature): at least 11 days
			COC(=O)c1cccc(C(=O)NCc2cc(NC(=O)CCCCC(=O)ON3C(=O)CCC3=O)ccc2OP(=O)(O)Cc2ccc(NC(=O)C(F)(F)F)cc2)n1 [Compound 4i]			hydrolytic stability (NHS group) (Chemical stability; store at zero degrees C in a dessicator): prone to hydrolysis
5	capable of catalytically hydrolyzing	capable of catalytically hydrolyzing	CC(=O)Nc1ccc(CC(=O)Oc2ccc(NC(=O)C(F)(F)F)cc2)cc1 [Compound 11]	not manifested by the accelerated hydrolysis	610000	
			Cc1ccc2cccc(NP(=O)(O)Cc3ccc(NC(=O)CCCC(=O)ON4C(=O)CCC4=O)cc3)c2n1 [Compound 13]			decomposition (Chemical stability; pH 3.5 and 6.2): No signs of decomposition; stability at zero degrees C (Chemical stability; zero degrees C, over 5 days): stable
4	capable of catalytically hydrolyzing	capable of catalytically hydrolyzing	CC(=O)Nc1ccc(CC(=O)Oc2ccc(NC(C)=O)cc2)cc1 [Compound 9]	not accepted as substrates	25000	
